Data as given in BindingDB's records for doi:10.3109/14756366.2012.715286 (Chulalongkorn University, 2013).
pIC50: −log10 of the molar value.

Target: T1, Tyrosine-protein phosphatase non-receptor type 1 [1-321] (Homo sapiens, UniProt P18031)
T1 construct: 1-321
T1 sequence (P18031 whole entry): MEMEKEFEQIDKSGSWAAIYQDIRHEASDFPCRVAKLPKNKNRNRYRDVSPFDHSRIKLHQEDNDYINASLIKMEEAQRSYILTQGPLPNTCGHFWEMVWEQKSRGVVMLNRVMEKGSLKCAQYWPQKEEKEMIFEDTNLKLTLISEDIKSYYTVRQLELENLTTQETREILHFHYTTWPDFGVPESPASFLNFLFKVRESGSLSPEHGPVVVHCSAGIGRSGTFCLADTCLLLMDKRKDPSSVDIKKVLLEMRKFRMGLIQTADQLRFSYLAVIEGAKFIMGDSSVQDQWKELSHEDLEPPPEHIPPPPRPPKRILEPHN
Test: PTP1B Activity Assay
Conditions: pH 7.5; 37 °C
Experimental: PTP1B was diluted before the experiment to 1.2 μg/mL in Tris buffer, pH7.6 (10 mM Tris, 1.0 mM EDTA, 3.0 mM DTT, 0.01% w/v NaN3). The tested compounds were dissolved in DMSO. The enzyme reaction buffer was Tris buffer, pH 7.5 (50 mM Tris, 0.15 M NaCl, 3 mM DTT). A typical 10 μL of tested compounds was added to the enzyme solution (50 μL), and the resulting mixture was preincubated at 37°C for 30 min. The enzyme reaction was initiated by the addition of 8 mM p-NPP (40 μL).

pIC50 | SMILES
3.86 | O=C(O)/C=C/c1ccccc1O [(2E)-3-(2-hydroxyphenyl)prop-2-enoic acid]
3.77 | O=C(O)/C=C/c1ccc(O)cc1 [p-Coumaric Acid]
